Reference: patent publication US20190167716A9, “Use of Electrolyzed Water for Treatment and Prevention of Common Livestock Diseases and Conditions, Including PRRS” (priority 2013, published 2019)

Tested on: streptococcus
Test: Fog test in bi-room swine confinement infected with streptococcus
Assay type: in vivo
Details: both rooms after a course of R-pen; recurred 10 days later in the control room
Procedure: A test was conducted in a 70′×280′ bi-room configuration swine confinement in a wean to finish operation infected with streptococcus symptoms and showing severe symptoms. The swine confinement included a common effluent pit with center dividing wall and pit level equalization cutouts at the base. Each room included a standard layout with […] and a 24 inch gated alleyway. Capacity was 2480 head, each room was 70 feet by 140 feet; one room was used as the test room to receive the electrolyzed water treatment, the other as a control. Two high pressure lines, centered through the barn at 12 inches below the ceiling, were used to deliver the electrolyzed water. The water was delivered via 60 nozzles in the treatment room, rated at 0.020 gallons per minute, two for each pen, at 1000 psi. The output of fog or mist to the room was 1.2 gallon per minute, delivered by 1000 psi 3 gpm 2 horsepower pump, actuated by a preset timer. The fog was administered for about 1 minute, each of four times a day at generally equally spaced intervals. Total was about 4.8 gallons per 24 hour period.
Both rooms were filled Oct. 17, 2013. Treatment began 1 week later and continued for 15 weeks. […] The death report, per room per week during the 15 week trial was as follows: […]

`CC1(C)S[C@@H]2[C@H](NC(=O)Cc3ccccc3)C(=O)N2[C@H]1C(=O)[O-].[K+]` [R-pen] was tested, and the strep symptoms was “decrease in strep symptoms”.
